Reference: paper doi:10.1101/2023.10.20.563248v1 (biorxiv, 2023)

How the values were obtained:
[1] = biological target: MST3 (full-length, NanoLuc fusion) (Homo sapiens, UniProt Q9Y6E0); test: cell-based
[2] = biological target: LTK (Homo sapiens, UniProt P29376); test: biochemical; settings: read-out: 21c Remaining activity, percent of control [%]
[3] = biological target: STK33 (Homo sapiens, UniProt Q9BYT3); test: biochemical; settings: read-out: 21c Remaining activity, percent of control [%]
[4] = biological target: DYRK1B (Homo sapiens, UniProt Q9Y463); test: biochemical; settings: read-out: 21c Remaining activity, percent of control [%]
[5] = biological target: MST3 (Homo sapiens, UniProt Q9Y6E0); test: biochemical; settings: 1 µM; inhibitor
[6] = biological target: TTBK1 (Homo sapiens, UniProt Q5TCY1); test: biochemical; settings: read-out: 21c Remaining activity, percent of control [%]
[7] = biological target: MKNK2 (Homo sapiens, UniProt Q9HBH9); settings: 1 µM; inhibitor
[8] = biological target: WNK3 (Homo sapiens, UniProt Q9BYP7); settings: 1 µM; inhibitor
[9] = biological target: ACVR2B (Homo sapiens, UniProt Q13705); settings: 1 µM; inhibitor
[10] = biological target: CDK19 (Homo sapiens, UniProt Q9BWU1); settings: 1 µM; inhibitor
[11] = biological target: NEK4 (Homo sapiens, UniProt P51957); settings: 1 µM; inhibitor
[12] = biological target: CDK3 (Homo sapiens, UniProt Q00526); settings: 1 µM; inhibitor
[13] = biological target: NLK (Homo sapiens, UniProt Q9UBE8); settings: 1 µM; inhibitor
[14] = biological target: IKKa (Homo sapiens, UniProt O15111); settings: 1 µM; inhibitor
[15] = biological target: VRK1 (Homo sapiens, UniProt Q99986); settings: 1 µM; inhibitor
[16] = biological target: MARK2 (Homo sapiens, UniProt Q7KZI7); settings: 1 µM; inhibitor
[17] = biological target: IKKb (Homo sapiens, UniProt O14920); settings: 1 µM; inhibitor
[18] = biological target: NEK7 (Homo sapiens, UniProt Q8TDX7); settings: 1 µM; inhibitor
[19] = biological target: TEC (Homo sapiens, UniProt P42680); settings: 1 µM; inhibitor
[20] = biological target: PIM3 (Homo sapiens, UniProt Q86V86); settings: 1 µM; inhibitor
[21] = biological target: LKB1/MO25a/STRADa (Homo sapiens, UniProt Q15831); settings: 1 µM; inhibitor
[22] = biological target: PKCi (Homo sapiens, UniProt P41743); settings: 1 µM; inhibitor
[23] = biological target: LIMK2 (Homo sapiens, UniProt P53671); test: NanoBRET tracer displacement, HEK293T; format: cell-based
[24] = biological target: MST4 (full-length, NanoLuc fusion) (Homo sapiens, UniProt Q9P289); test: NanoBRET tracer displacement, HEK293T; format: cell-based
Sequence of MST4 (full-length, NanoLuc fusion) (Q9P289 whole entry, the tested form may be a part): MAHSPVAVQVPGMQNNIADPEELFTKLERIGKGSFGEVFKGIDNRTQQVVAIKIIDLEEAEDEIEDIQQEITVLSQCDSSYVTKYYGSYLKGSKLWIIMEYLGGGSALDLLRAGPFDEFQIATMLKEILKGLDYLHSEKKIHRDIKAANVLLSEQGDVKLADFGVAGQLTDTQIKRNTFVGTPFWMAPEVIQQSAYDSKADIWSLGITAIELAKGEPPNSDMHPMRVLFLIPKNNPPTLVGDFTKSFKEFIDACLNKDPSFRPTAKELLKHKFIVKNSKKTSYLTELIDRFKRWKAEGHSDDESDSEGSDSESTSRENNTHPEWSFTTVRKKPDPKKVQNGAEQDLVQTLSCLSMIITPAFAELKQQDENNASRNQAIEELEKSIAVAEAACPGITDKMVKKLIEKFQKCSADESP

Sequence of LTK (P29376 whole entry): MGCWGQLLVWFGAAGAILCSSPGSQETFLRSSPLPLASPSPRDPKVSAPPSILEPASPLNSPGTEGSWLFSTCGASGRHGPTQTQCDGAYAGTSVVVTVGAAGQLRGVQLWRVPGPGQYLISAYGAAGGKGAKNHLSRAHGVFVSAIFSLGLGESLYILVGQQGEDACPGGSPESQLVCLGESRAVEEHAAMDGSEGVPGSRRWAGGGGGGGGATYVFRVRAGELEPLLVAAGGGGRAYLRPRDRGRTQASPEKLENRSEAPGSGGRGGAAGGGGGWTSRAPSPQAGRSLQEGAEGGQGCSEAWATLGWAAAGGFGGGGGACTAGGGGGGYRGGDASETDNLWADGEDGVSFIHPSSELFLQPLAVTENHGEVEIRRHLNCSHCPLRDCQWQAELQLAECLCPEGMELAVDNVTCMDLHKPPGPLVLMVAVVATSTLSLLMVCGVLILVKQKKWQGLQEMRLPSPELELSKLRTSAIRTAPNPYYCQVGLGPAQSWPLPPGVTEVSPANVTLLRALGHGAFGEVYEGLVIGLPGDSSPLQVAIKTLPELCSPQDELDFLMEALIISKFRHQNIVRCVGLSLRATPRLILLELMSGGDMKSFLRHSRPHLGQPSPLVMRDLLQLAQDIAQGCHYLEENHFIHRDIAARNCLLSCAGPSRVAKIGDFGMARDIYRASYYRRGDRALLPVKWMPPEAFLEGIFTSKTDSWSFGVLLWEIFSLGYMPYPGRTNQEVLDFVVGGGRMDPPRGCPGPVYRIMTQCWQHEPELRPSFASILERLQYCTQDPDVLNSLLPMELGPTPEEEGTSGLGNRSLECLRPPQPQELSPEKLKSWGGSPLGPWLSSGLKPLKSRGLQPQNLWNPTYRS
Sequence of LKB1/MO25a/STRADa (Q15831 whole entry): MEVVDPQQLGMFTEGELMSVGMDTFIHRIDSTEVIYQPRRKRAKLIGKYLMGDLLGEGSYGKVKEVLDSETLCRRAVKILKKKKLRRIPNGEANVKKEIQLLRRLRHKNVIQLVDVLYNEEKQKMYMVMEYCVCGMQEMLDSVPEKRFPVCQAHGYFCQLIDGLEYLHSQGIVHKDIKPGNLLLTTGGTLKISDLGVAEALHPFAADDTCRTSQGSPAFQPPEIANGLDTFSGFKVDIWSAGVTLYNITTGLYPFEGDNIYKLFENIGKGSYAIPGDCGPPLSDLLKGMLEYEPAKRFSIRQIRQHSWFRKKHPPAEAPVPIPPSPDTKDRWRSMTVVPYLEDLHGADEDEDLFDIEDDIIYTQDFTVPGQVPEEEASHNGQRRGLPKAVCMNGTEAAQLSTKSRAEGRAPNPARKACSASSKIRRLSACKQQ
Sequence of LKB1/MO25a/STRADa (Q7RTN6 whole entry partner): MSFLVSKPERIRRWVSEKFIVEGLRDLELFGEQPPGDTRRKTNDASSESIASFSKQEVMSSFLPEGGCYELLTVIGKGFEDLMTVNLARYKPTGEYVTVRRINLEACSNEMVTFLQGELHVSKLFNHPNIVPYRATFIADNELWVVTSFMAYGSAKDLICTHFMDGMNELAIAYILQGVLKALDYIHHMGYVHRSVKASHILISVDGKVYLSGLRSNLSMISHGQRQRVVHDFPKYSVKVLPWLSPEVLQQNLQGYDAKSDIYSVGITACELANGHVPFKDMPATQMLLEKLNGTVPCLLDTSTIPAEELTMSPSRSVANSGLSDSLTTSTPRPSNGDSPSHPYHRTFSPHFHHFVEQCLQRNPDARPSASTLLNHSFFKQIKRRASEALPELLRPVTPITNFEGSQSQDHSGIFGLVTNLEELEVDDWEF
Sequence of LKB1/MO25a/STRADa (Q9Y376 whole entry partner): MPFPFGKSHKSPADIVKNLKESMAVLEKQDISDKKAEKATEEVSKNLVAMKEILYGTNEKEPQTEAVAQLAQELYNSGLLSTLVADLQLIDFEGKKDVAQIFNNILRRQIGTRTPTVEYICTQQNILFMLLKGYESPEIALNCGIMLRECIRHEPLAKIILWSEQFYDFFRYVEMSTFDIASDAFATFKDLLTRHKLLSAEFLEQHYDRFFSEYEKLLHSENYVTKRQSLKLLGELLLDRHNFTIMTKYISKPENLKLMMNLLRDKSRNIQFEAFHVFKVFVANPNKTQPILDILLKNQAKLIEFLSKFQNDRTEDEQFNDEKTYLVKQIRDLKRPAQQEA
Sequence of IKKa (O15111 whole entry): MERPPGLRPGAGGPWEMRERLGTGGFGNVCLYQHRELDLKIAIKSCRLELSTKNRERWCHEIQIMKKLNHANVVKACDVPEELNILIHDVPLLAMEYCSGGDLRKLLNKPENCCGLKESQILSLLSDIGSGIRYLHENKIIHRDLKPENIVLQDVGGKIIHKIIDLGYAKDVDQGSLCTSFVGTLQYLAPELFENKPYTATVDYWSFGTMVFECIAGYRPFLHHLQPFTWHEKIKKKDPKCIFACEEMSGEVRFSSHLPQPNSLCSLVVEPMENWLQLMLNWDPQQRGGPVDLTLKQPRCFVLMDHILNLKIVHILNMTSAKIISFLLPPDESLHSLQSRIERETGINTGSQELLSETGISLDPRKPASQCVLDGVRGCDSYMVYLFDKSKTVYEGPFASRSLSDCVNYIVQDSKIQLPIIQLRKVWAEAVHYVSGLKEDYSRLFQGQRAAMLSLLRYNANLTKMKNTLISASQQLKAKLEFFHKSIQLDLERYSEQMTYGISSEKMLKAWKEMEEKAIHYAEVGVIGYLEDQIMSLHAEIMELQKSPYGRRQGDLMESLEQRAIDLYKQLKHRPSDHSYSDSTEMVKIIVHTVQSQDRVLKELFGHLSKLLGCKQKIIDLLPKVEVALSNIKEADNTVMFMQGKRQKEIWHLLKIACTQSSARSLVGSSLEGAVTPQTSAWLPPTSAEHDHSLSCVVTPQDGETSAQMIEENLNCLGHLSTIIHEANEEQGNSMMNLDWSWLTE
Sequence of CDK19 (Q9BWU1 whole entry): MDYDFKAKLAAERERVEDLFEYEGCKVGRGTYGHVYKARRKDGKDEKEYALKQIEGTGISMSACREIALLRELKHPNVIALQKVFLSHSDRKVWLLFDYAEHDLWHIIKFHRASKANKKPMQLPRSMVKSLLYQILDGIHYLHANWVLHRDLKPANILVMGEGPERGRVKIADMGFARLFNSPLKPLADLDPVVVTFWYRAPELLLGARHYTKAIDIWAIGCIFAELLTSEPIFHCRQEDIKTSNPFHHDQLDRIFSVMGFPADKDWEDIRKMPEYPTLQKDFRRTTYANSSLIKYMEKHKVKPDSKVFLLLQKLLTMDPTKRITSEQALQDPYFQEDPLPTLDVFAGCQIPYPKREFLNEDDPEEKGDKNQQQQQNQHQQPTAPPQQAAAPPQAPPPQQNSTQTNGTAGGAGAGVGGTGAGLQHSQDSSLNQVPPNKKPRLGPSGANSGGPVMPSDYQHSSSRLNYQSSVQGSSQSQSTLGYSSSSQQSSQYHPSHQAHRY
Sequence of ACVR2B (Q13705 whole entry): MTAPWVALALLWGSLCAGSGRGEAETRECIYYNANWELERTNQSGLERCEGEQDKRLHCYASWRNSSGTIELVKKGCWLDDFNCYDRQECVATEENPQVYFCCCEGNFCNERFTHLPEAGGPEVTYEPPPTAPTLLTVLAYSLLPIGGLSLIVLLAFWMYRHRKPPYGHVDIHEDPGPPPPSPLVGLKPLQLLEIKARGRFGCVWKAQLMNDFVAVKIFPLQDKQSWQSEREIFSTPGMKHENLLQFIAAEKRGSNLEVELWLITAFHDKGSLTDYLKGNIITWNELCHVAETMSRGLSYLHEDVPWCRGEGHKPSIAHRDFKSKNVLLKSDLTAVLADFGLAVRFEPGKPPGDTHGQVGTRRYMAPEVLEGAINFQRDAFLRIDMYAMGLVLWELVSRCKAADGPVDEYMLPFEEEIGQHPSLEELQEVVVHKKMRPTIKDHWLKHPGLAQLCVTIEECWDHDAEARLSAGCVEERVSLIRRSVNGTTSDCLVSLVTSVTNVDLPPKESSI
Sequence of NEK7 (Q8TDX7 whole entry): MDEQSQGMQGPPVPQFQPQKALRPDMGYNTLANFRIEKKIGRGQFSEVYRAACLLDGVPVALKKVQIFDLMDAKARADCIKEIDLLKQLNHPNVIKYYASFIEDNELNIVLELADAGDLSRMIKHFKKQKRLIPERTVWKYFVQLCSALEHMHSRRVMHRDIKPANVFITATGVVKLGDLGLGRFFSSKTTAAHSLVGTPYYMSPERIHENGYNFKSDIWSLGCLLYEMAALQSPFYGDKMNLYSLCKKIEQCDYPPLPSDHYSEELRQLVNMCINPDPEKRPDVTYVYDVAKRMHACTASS

- EC50 [1]: 106 nM
- remaining activity at 1 µM [2]: 92%
- remaining activity at 1 µM [3]: 88.7%
- remaining activity at 1 µM [4]: 79.7%
- 21c Remaining activity, percent of control [%] [5]: 13.5%
- remaining activity at 1 µM [6]: 112%
- 21c Remaining activity, percent of control [%] [7]: 105.8%
- 21c Remaining activity, percent of control [%] [8]: 98.5%
- 21c Remaining activity, percent of control [%] [9]: 100.5%
- 21c Remaining activity, percent of control [%] [10]: 92.8%
- 21c Remaining activity, percent of control [%] [11]: 103.8%
- 21c Remaining activity, percent of control [%] [12]: 95.9%
- 21c Remaining activity, percent of control [%] [13]: 111.9%
- 21c Remaining activity, percent of control [%] [14]: 80.7%
- 21c Remaining activity, percent of control [%] [15]: 91.5%
- 21c Remaining activity, percent of control [%] [16]: 98.8%
- 21c Remaining activity, percent of control [%] [17]: 94.0%
- 21c Remaining activity, percent of control [%] [18]: 98.8%
- 21c Remaining activity, percent of control [%] [19]: 91.4%
- 21c Remaining activity, percent of control [%] [20]: 88.9%
- 21c Remaining activity, percent of control [%] [21]: 105.1%
- 21c Remaining activity, percent of control [%] [22]: 83.5%
- EC50 [23]: 1400 nM
- EC50 [24]: 1400 nM
Compound: O=C1NCCCCCNc2nc(c3ccccc3n2)Nc2cc1[nH]n2 [21c, (Z)-3^1H-2,5,11-triaza-1(4,2)-quinazolina-3(3,5)-pyrazolacycloundecaphan-4-one]
